Test results taken from patent US3980794A, “Method for promoting growth of poultry with 3-(5-nitro-2-imidazolyl)pyrazoles” (Eli Lilly and Company, priority 1975, dated 1976).
In brackets after ≈: the same amount, converted by molar mass. Read-outs that look alike come from different tables or passages of the source.

Experiments:
[1] = test system: Propionibacterium acnes 79; experiment: Susceptibility of anaerobic bacteria, agar dilution; format: cell-based; conditions: Cutibacterium acnes, 79, 24 h, read-out: 24 Hr. Minimum Inhibitory Concentration
[2] = test system: Bacteroides fragilis sp. fragilis 1936B; experiment: as above; format: cell-based; conditions: Bacteroides fragilis, 24 h, read-out: 24 Hr. Minimum Inhibitory Concentration
[3] = test system: Eubacterium aerofaciens 1235; experiment: as above; format: cell-based; conditions: Collinsella aerofaciens, 1235, 24 h, read-out: 24 Hr. Minimum Inhibitory Concentration
[4] = test system: Bacteroides fragilis sp. vulgatus 1563; experiment: as above; format: cell-based; conditions: Bacteroides fragilis, 24 h, read-out: 24 Hr. Minimum Inhibitory Concentration
[5] = test system: Peptostreptococcus intermedius 1264; experiment: as above; format: cell-based; conditions: Peptostreptococcus, 1264, 24 h, read-out: 24 Hr. Minimum Inhibitory Concentration
[6] = test system: Fusobacterium symbiosum 1470; experiment: as above; format: cell-based; conditions: Fusobacterium, 1470, 24 h, read-out: 24 Hr. Minimum Inhibitory Concentration
[7] = test system: Fusobacterium necrophorum 13859; experiment: as above; format: cell-based; conditions: Fusobacterium necrophorum, 13859, 24 h, read-out: 24 Hr. Minimum Inhibitory Concentration
[8] = test system: Clostridium innocuum 1373; experiment: as above; format: cell-based; conditions: [Clostridium] innocuum, 1373, 24 h, read-out: 24 Hr. Minimum Inhibitory Concentration
Clostridium ramosum 1313 = experiment: as above; format: cell-based; conditions: Thomasclavelia ramosa, 24 h; Clostridium ramosum 1313; read-out: 24 Hr. Minimum Inhibitory Concentration
[9] = test system: Veillonella alcalescens 1; experiment: as above; format: cell-based; conditions: Veillonella parvula, 24 h; Veillonella alcalescens 1; read-out: 24 Hr. Minimum Inhibitory Concentration
[10] = test system: Bacteroides fragilis sp. vulgatus 1211; experiment: as above; format: cell-based; conditions: Bacteroides fragilis, 24 h, read-out: 24 Hr. Minimum Inhibitory Concentration
[11] = test system: Clostridium perfringens 81; experiment: microbe, parasite or virus in culture; format: cell-based; conditions: Clostridium perfringens, 81, 24 h, read-out: 24 Hr. Minimum Inhibitory Concentration
[12] = test system: Bacteroides fragilis sp. thetaiotaomicron 1438; experiment: Susceptibility of anaerobic bacteria, agar dilution; format: cell-based; conditions: Bacteroides fragilis, 24 h, read-out: 24 Hr. Minimum Inhibitory Concentration
[13] = test system: Clostridium septicum bovine; experiment: as above; format: cell-based; conditions: 24 h, read-out: 24 Hr. Minimum Inhibitory Concentration
Procedure: (§1) The susceptibility of anaerobic bacteria, both gram positive and gram negative, to a representative number of the novel compounds of this application was determined using the agar dilution method. The bacteria used were isolated from patients hospitalized at the Indiana University Medical Center. The isolates were identified in the anaerobe laboratory of the Medical Center by the criteria established by Dowell et al., Laboratory Methods in Anaerobic Bacteriology. Public Health Serv. Publ. No. 1803 (1968) [Center for Disease Control, Atlanta, Ga.]; and by Smith et al., The Pathogenic Anaerobic Bacteria, pages 96-136 (1968) [Charles C. Thomas, Publisher, Springfield, Ill.]. All the organisms were maintained in chopped meat glucose medium (Scott Labs) at room temperature.
(§2) The method used for the agar dilution tests was based on the studies of Sutter et al., Antimicrob. Ag. Chemother. 3, 188-193 (1973). The strains of anaerobic bacteria were grown in 16 × 120 mm. tubes for 16 to 18 hours in Thioglycolate medium without indicator--135C (Becton, Dickinson and Co.), to which was added 5 mcg. of hemin per milliliter prior to autoclaving, plus 1 mg. of sodium bicarbonate and 0.1 mcg. of filter-sterilized menadione per milliliter after autoclaving. The growth tubes for the bacteria Veillonella alcalescens were additionally supplemented with 5 mg. of sodium lactate per milliliter. The strains were adjusted to the turbidity of the No. 1 McFarland standard in Thioglycolate medium without indicator--135C containing an additional 0.13 percent Bacto-agar (Difco). Each strain was then applied to the surface of the petri plate (100 mm. × 15 mm.) by means of a replicator.
(§3) For the agar dilution studies, two-fold dilutions of the test compounds were prepared in deionized water to which was then added laked sheep blood and filter-sterilized menadione so the concentrations after the agar dilution were 5 percent and 10 mcg./ml. respectively. An equal volume of double strength Brucella agar (Becton, Dickinson and Co.) was mixed with each dilution in a water bath held at 50°C. and then poured onto the petri plates.
(§4) All of the procedures were done inside a plastic glove box, except for the incubation of the growth tubes and the pouring of the plates. After the plates hardened, they were put inside the glove box for a minimum of two hours before they were inoculated. Generally, the glove box procedures of Aranki et al., Applied Microbiology 17, 568-576 (1969), were followed, but the following modifications were used. Dry materials were introduced into the glove box by evacuating the lock to 28 inches of mercury and filling once with nitrogen gas, followed by evacuating in the same manner and filling with an 80 percent nitrogen plus 10 percent CO2 plus 10 percent hydrogen gas mixture. Liquid media and agar plates were introduced into the glove box by evacuating the lock to 10 inches of mercury and filling with gas four times. The nitrogen gas was used to fill the lock for the first two cycles of evacuation, with the gas mixture described above used for the final two fillings.
(§5) All the plates were incubated at 37°C. in Gas Pak jars (Becton, Dickinson and Co.) containing palladium-coated alumina catalysts (reactivated after each use). The results of the agar dilution tests were read after about 24 hours of incubation. The minimum inhibitory concentration (MIC) was recorded as the lowest concentration of test compound at which there was no growth.
(§6) The results of these in vitro tests are recorded in Charts 11 and 12 which follow. The test compounds are identified in the same manner as in the previous experiments. The antibiotics cephalothin and erythromycin were also run simultaneously with the novel compounds of this application, for comparison purposes, and the results are included in Charts 11 and 12 below.

[14] = test system: Clostridium septicum 1128; experiment: as above; format: cell-based; conditions: 24 h, read-out: 24 Hr. Minimum Inhibitory Concentration
Procedure: as §1, §2, §3, §4, §5, §6

[15] = test system: Peptococcus anaerobius 1428; experiment: as above; format: cell-based; conditions: 24 h, read-out: 24 Hr. Minimum Inhibitory Concentration
[16] = test system: Bacteroides fragilis sp. fragilis 1877; experiment: as above; format: cell-based; conditions: Bacteroides fragilis, 24 h, read-out: 24 Hr. Minimum Inhibitory Concentration
Actinomyces bovis 13684 = experiment: as above; format: cell-based; conditions: Actinomyces bovis, 13684, 24 h, read-out: 24 Hr. Minimum Inhibitory Concentration
[17] = test system: Propionibacterium acnes 44; experiment: as above; format: cell-based; conditions: Cutibacterium acnes, 44, 24 h, read-out: 24 Hr. Minimum Inhibitory Concentration
Salmonella typhimurium = experiment: Control of infections caused by Salmonella typhimurium in chickens, subcutaneous (Experiment 2); format: in vivo; conditions: Salmonella enterica, sc, 144 h, 6 days, read-out: Survival Ratio (converted); for responders at 7.5 mg/kg: 7.5 mg./kg. subcutaneous; for responders at 15 mg/kg: 15 mg./kg. subcutaneous; for responders at 30 mg/kg: 30 mg./kg. subcutaneous; for responders at 60 mg/kg: 60 mg./kg. subcutaneous
Procedure: The efficacy of the novel compounds in the control of infections caused by Salmonella typhimurium in chickens was evaluated in the following manner.
The test was carried out using day-old chicks weighing approximately 35 g. each. The chicks were divided into groups of 5 chicks per each dosage level. A portion of the chicks received the test compound which was suspended in 0.2 ml. of polyethylene glycol 200 and administered subcutanusly in the neck. […] All the chicks were challenged with a 1:200 dilution of a culture of the organism, 0.1 ml. of the dilution being injected into each chick in the leg intramuscularly. […] The test compounds are identified in the same manner as set forth in Experiment 1.
In the chart, column 1 lists the compounds tested; column 2, the dosage of test compound in mg./kg.; and column 3, the survival ratio.

Pasteurella multocida = experiment: Efficacy against Pasteurella multocida infections in mice when administered by injection (Experiment 1); format: in vivo, Swiss mice; conditions: ip; for responders at 2.5 mg/kg: 2.5 mg./kg. i.p.; for responders at 5 mg/kg: 5.0 mg./kg. i.p.; for responders at 7.5 mg/kg: 7.5 mg./kg. i.p.
Procedure: The efficacy of the novel compounds against Pasteurella multocida infections in mice when administered by injection was studied.
Female Swiss mice weighing from 15 to about 20 g. were used. The test compound, 5.0 mg., was weighed out and dissolved in 0.5 ml. of dimethyl sulfoxide, and this solution was added to 9.5 ml. of sodium carboxymethylcellulose suspension. Groups of five mice each were injected intraperitoneally with 0.1 ml. each of the above-prepared test composition. This preparation gave a test rate of 2.5 mg. per kilo of body weight of mouse. The compounds were tested at 2.5, 5.0, or 7.5 mg. per kilo of body weight of mouse, and the test preparations for rates of 5.0 and 7.5 mg./kg. were prepared in a similar manner. Immediately after receiving the test compound, the mice were challenged using log10 dilutions of 10^-^4, 10^-^5, 10^-^6, and 10^-^7 of a 16 to 20-hour tryptose broth culture of Pasteurella multocida at 0.1 ml. per mouse subcutaneously. Similar groups of nontreated control mice were also challenged, the challenge being administered subcutaneously. The groups of mice were observed daily for mortality and the total mortality in treated groups compared with that which occurred in the nonmedicated control groups. Each test compound is identified by the number of the example describing its preparation.
In the chart, column 1 lists the test compound; column 2, the dosage of test compound in mg./kg. of mouse body weight; column 3, the dilution of the challenge organism; and column 4, the ratio of the number of mice surviving the test at each dosage and challenge dilution to the number of mice tested at each dosage and challenge dilution, called the survival ratio.

[18] = challenge dilution 10^-^4, read-out: Survival Ratio (converted)
[19] = challenge dilution 10^-^5, read-out: Survival Ratio (converted)
[20] = challenge dilution 10^-^6, read-out: Survival Ratio (converted)

Compound: CC[C@H]1OC(=O)[C@H](C)[C@@H](O[C@H]2C[C@@](C)(OC)[C@@H](O)[C@H](C)O2)[C@H](C)[C@@H](O[C@@H]2O[C@H](C)C[C@H](N(C)C)[C@H]2O)[C@](C)(O)C[C@@H](C)C(=O)[C@H](C)[C@@H](O)[C@]1(C)O [Erythromycin, erythromycin, reference compound]
- MIC [1]: < 0.5 µg/mL
- MIC [2]: 4 µg/mL (≈ 5.45 µM)
- MIC [3]: 1 µg/mL (≈ 1.36 µM)
- MIC [4]: 2 µg/mL (≈ 2.73 µM)
- MIC [5]: 8 µg/mL (≈ 10.9 µM)
- MIC [6]: < 0.5 µg/mL
- MIC [7]: 2 µg/mL (≈ 2.73 µM)
- MIC [8]: > 128 µg/mL
- MIC (Clostridium ramosum 1313): > 128 µg/mL
- MIC [9]: 1 µg/mL (≈ 1.36 µM)
- MIC [10]: 2 µg/mL (≈ 2.73 µM)
- MIC [11]: < 0.5 µg/mL
- MIC [12]: 4 µg/mL (≈ 5.45 µM)
- MIC [13]: < 0.5 µg/mL
- MIC [14]: 1 µg/mL (≈ 1.36 µM)
- MIC [15]: 1 µg/mL (≈ 1.36 µM)
- MIC [16]: 4 µg/mL (≈ 5.45 µM)
- MIC (Actinomyces bovis 13684): 1 µg/mL (≈ 1.36 µM)
- MIC [17]: < 0.5 µg/mL

Compound: CCOC(C)=Nc1c(C#N)c(-c2ncc([N+](=O)[O-])n2C)nn1C [Compound 13, Ethyl N-[4-cyano-1-methyl-3-(1-methyl-5-nitro-2-imidazolyl)pyrazol-5-yl]acetimidate]
- responders at 7.5 mg/kg (Salmonella typhimurium): 53.3%
- responders at 15 mg/kg (Salmonella typhimurium): 40%
- responders at 30 mg/kg (Salmonella typhimurium): 55%
- responders at 60 mg/kg (Salmonella typhimurium): 65%

Compound: CC(=O)N(C(C)=O)c1c(C#N)c(-c2ncc([N+](=O)[O-])n2C)nn1C [Compound 5, N-[4-Cyano-1-methyl-3-(1-methyl-5-nitro-2-imidazolyl)pyrazol-5-yl]diacetamide]
- responders at 2.5 mg/kg (Pasteurella multocida; [18]): 100%
- responders at 2.5 mg/kg (Pasteurella multocida; [19]): 90%
- responders at 2.5 mg/kg (Pasteurella multocida; [20]): 100%
- responders at 7.5 mg/kg (Salmonella typhimurium): 0%
- responders at 15 mg/kg (Salmonella typhimurium): 0%
- responders at 30 mg/kg (Salmonella typhimurium): 40%
- responders at 60 mg/kg (Salmonella typhimurium): 45%

Compound: Cn1nc(-c2ncc([N+](=O)[O-])n2C)c(C#N)c1N=COCCCl [Compound 13B, 2-Chloroethyl N-[4-cyano-1-methyl-3-(1-methyl-5-nitro-2-imidazolyl)pyrazol-5-yl]formimidate]
- responders at 5 mg/kg (Pasteurella multocida; [18]): 90%
- responders at 5 mg/kg (Pasteurella multocida; [19]): 70%
- responders at 5 mg/kg (Pasteurella multocida; [20]): 80%
- responders at 7.5 mg/kg (Salmonella typhimurium): 10%
- responders at 15 mg/kg (Salmonella typhimurium): 65%
- responders at 30 mg/kg (Salmonella typhimurium): 50%
- responders at 60 mg/kg (Salmonella typhimurium): 70%

Compound: CC(C)COC=Nc1c(C#N)c(-c2ncc([N+](=O)[O-])n2C)nn1C [Compound 13C, Isobutyl N-[4-cyano-1-methyl-3-(1-methyl-5-nitro-2-imidazolyl)pyrazol-5-yl]formimidate]
- responders at 2.5 mg/kg (Pasteurella multocida; [18]): 40%
- responders at 2.5 mg/kg (Pasteurella multocida; [19]): 30%
- responders at 2.5 mg/kg (Pasteurella multocida; [20]): 70%
- responders at 5 mg/kg (Pasteurella multocida; [18]): 40%
- responders at 5 mg/kg (Pasteurella multocida; [19]): 80%
- responders at 5 mg/kg (Pasteurella multocida; [20]): 90%
- responders at 7.5 mg/kg (Pasteurella multocida; challenge dilution 10^-^4, read-out: Survival Ratio): 80%
- responders at 7.5 mg/kg (Pasteurella multocida; challenge dilution 10^-^5, read-out: Survival Ratio): 100%
- responders at 7.5 mg/kg (Pasteurella multocida; challenge dilution 10^-^6, read-out: Survival Ratio): 100%
- responders at 7.5 mg/kg (Salmonella typhimurium): 0%
- responders at 15 mg/kg (Salmonella typhimurium): 46.7%
- responders at 30 mg/kg (Salmonella typhimurium): 53.3%
- responders at 60 mg/kg (Salmonella typhimurium): 66.7%
